Reference: publication PMC4312132, “Phenylalanine in the Pore of the Erwinia Ligand-Gated Ion Channel Modulates Picrotoxinin Potency but Not Receptor Function” (Biochemistry, 2014)
Read-outs that look alike come from different tables or passages of the source.

Experiments:
[1] = molecular target: T1, F16′Y ELIC (Dickeya chrysanthemi, UniProt P0C7B7, F246Y); experiment: GABA activation of F16′Y ELIC, two-electrode voltage clamp in Xenopus oocytes; format: cell-based, Erwinia chrysanthemii; settings: F16′Y ELIC; GABA concentration–response
T1 construct: expressed in transfected cells; host or cells: Xenopus laevis oocytes (cRNA injection)

[2] = molecular target: T2, Q2′N ELIC (Dickeya chrysanthemi, UniProt P0C7B7, Q232N); experiment: GABA activation of Q2′N ELIC, two-electrode voltage clamp in Xenopus oocytes; format: cell-based, Erwinia chrysanthemii; settings: Q2′N ELIC; GABA concentration–response
T2 construct: expressed in transfected cells; host or cells: Xenopus laevis oocytes (cRNA injection)

[3] = molecular target: T3, F16′L ELIC (Dickeya chrysanthemi, UniProt P0C7B7, F246L); experiment: GABA activation of F16′L ELIC, two-electrode voltage clamp in Xenopus oocytes; format: cell-based, Erwinia chrysanthemii
T3 construct: expressed in transfected cells; host or cells: Xenopus laevis oocytes (cRNA injection)
Method: (§1) Xenopus laevis oocyte-positive females were purchased from NASCO (Fort Atkinson, WI) and maintained according to standard methods. Harvested stage V and VI Xenopus oocytes were washed in four changes of Ca^2+-free ND96 [96 mM NaCl, 2 mM KCl, 1 mM MgCl2, and 5 mM HEPES (pH 7.5)], defolliculated in 1.5 mg mL^–1 collagenase type 1A for approximately 2 h, washed again in four changes of ND96, and stored in ND96 at 16 °C containing 2.5 mM sodium pyruvate, […] gentamycin, and 0.7 mM theophylline.
(§2) ELIC (GenBank accession number ADN00343.1) was kindly provided by C. Ulens. For expression in Xenopus oocytes, it was cloned into pGEMHE with the signal sequence of the human α7 nACh receptor. […] Stage V and VI oocytes were injected with 20 ng of cRNA, and currents were recorded 1–3 days postinjection.
(§3) Using two-electrode voltage clamp, Xenopus oocytes were clamped at −60 mV using an OC-725 amplifier (Warner Instruments, Hamden, CT), Digidata 1322A, and the Strathclyde Electrophysiology Software Package (Department of Physiology and Pharmacology, University of Strathclyde, Glasgow, U.K.). Currents were recorded at 5 kHz and filtered at a frequency of 1 kHz. […] Inhibition by test compounds was measured at the GABA EC50 for each mutant. […]

[4] = molecular target: T4, F16′W ELIC (Dickeya chrysanthemi, UniProt P0C7B7, F246W); experiment: GABA activation of F16′W ELIC, two-electrode voltage clamp in Xenopus oocytes; format: cell-based, Erwinia chrysanthemii; settings: F16′W ELIC; GABA concentration–response
T4 construct: expressed in transfected cells; host or cells: Xenopus laevis oocytes (cRNA injection)

[5] = molecular target: T5, F16′S ELIC (Dickeya chrysanthemi, UniProt P0C7B7, F246S); experiment: GABA activation of F16′S ELIC, two-electrode voltage clamp in Xenopus oocytes; format: cell-based, Erwinia chrysanthemii; settings: F16′S ELIC; GABA concentration–response
T5 construct: expressed in transfected cells; host or cells: Xenopus laevis oocytes (cRNA injection)

[6] = molecular target: T6, F16′Q ELIC (Dickeya chrysanthemi, UniProt P0C7B7, F246Q); experiment: GABA activation of F16′Q ELIC, two-electrode voltage clamp in Xenopus oocytes; format: cell-based, Erwinia chrysanthemii; settings: F16′Q ELIC; GABA concentration–response
T6 construct: expressed in transfected cells; host or cells: Xenopus laevis oocytes (cRNA injection)

[7] = molecular target: T7, F16′E ELIC (Dickeya chrysanthemi, UniProt P0C7B7, F246E); experiment: GABA activation of F16′E ELIC, two-electrode voltage clamp in Xenopus oocytes; format: cell-based, Erwinia chrysanthemii
T7 construct: expressed in transfected cells; host or cells: Xenopus laevis oocytes (cRNA injection)
Method: as §1, §2, §3

[8] = molecular target: T8, T6′S ELIC (Dickeya chrysanthemi, UniProt P0C7B7, T236S); experiment: GABA activation of T6′S ELIC, two-electrode voltage clamp in Xenopus oocytes; format: cell-based, Erwinia chrysanthemii; settings: T6′S ELIC; GABA concentration–response
T8 construct: expressed in transfected cells; host or cells: Xenopus laevis oocytes (cRNA injection)

[9] = molecular target: T9, F16′A ELIC (Dickeya chrysanthemi, UniProt P0C7B7, F246A); experiment: GABA activation of F16′A ELIC, two-electrode voltage clamp in Xenopus oocytes; format: cell-based, Erwinia chrysanthemii; settings: F16′A ELIC; GABA concentration–response
T9 construct: expressed in transfected cells; host or cells: Xenopus laevis oocytes (cRNA injection)
Method: as §1, §2, §3

[10] = molecular target: T10, F16′D ELIC (Dickeya chrysanthemi, UniProt P0C7B7, F246D); experiment: GABA activation of F16′D ELIC, two-electrode voltage clamp in Xenopus oocytes; format: cell-based, Erwinia chrysanthemii; settings: F16′D ELIC; GABA concentration–response
T10 construct: expressed in transfected cells; host or cells: Xenopus laevis oocytes (cRNA injection)

[11] = molecular target: T11, Q2′A ELIC (Dickeya chrysanthemi, UniProt P0C7B7, Q232A); experiment: GABA activation of Q2′A ELIC, two-electrode voltage clamp in Xenopus oocytes; format: cell-based, Erwinia chrysanthemii; settings: Q2′A receptors
T11 construct: expressed in transfected cells; host or cells: Xenopus laevis oocytes (cRNA injection)
Method: as §1, §2, §3

[12] = molecular target: T12, F16′S/T6′S ELIC (Dickeya chrysanthemi, UniProt P0C7B7, F246S/T236S); experiment: GABA activation of F16′S/T6′S ELIC, two-electrode voltage clamp in Xenopus oocytes; format: cell-based, Erwinia chrysanthemii; settings: F16′S/T6′S ELIC; GABA concentration–response
T12 construct: expressed in transfected cells; host or cells: Xenopus laevis oocytes (cRNA injection)

[13] = molecular target: T13, T6′A ELIC (Dickeya chrysanthemi, UniProt P0C7B7, T236A); experiment: GABA activation of T6′A ELIC, two-electrode voltage clamp in Xenopus oocytes; format: cell-based, Erwinia chrysanthemii; settings: T6′A ELIC; GABA concentration–response
T13 construct: expressed in transfected cells; host or cells: Xenopus laevis oocytes (cRNA injection)

[14] = molecular target: T14, wild type ELIC (Dickeya chrysanthemi, UniProt P0C7B7); experiment: GABA activation of wild-type ELIC, two-electrode voltage clamp in Xenopus oocytes; format: cell-based, Erwinia chrysanthemii
T14 construct: expressed in transfected cells; host or cells: Xenopus laevis oocytes (cRNA injection)
Method: as §1
(§4) ELIC (GenBank accession number ADN00343.1) was kindly provided by C. Ulens. For expression in Xenopus oocytes, it was cloned into pGEMHE with the signal sequence of the human α7 nACh receptor. Site-directed mutagenesis was performed with the QuikChange mutagenesis kit (Stratagene, La Jolla, CA). cRNA was transcribed in vitro from the linearized pGEMHE cDNA template using the mMessage mMachine T7 transcription kit (Ambion, Austin, TX). Stage V and VI oocytes were injected with 20 ng of cRNA, and currents were recorded 1–3 days postinjection.
(§5) Using two-electrode voltage clamp, Xenopus oocytes were clamped at −60 mV using an OC-725 amplifier (Warner Instruments, Hamden, CT), Digidata 1322A, and the Strathclyde Electrophysiology Software Package (Department of Physiology and Pharmacology, University of Strathclyde, Glasgow, U.K.). Currents were recorded at 5 kHz and filtered at a frequency of 1 kHz. Microelectrodes were fabricated from borosilicate glass (GC120TF-10, Harvard Apparatus, Edenbridge, Kent, U.K.) using a one-stage horizontal pull (P-87, Sutter Instrument Co., Novato, CA) and filled with 3 M KCl. Pipette resistances ranged from 1.0 to 2.0 MΩ. Oocytes were perfused with ND96 at a constant rate of 12 mL min^–1 with complete solution exchange within 5 s. Drug application was accomplished via a simple gravity-fed system calibrated to run at the same rate. Inhibition by test compounds was measured at the GABA EC50 for each mutant.
Analysis and curve fitting were performed using Prism version 4.03 (GraphPad Software, San Diego, CA). […]

[15] = molecular target: T15, F16′T ELIC (Dickeya chrysanthemi, UniProt P0C7B7, F246T); experiment: GABA activation of F16′T ELIC, two-electrode voltage clamp in Xenopus oocytes; format: cell-based, Erwinia chrysanthemii; settings: F16′T ELIC; GABA concentration–response
T15 construct: expressed in transfected cells; host or cells: Xenopus laevis oocytes (cRNA injection)

[16] = system: ELIC with mutations of residues 2′ and 6′; settings: mutations of residues 2′ and 6′ in ELIC; cited from earlier work
[17] = molecular target: T4, F16′W ELIC; experiment: Inhibition of GABA-elicited currents of F16′W ELIC in Xenopus oocytes; format: cell-based, Erwinia chrysanthemii; settings: F16′W ELIC
[18] = molecular target: T13, T6′A ELIC; experiment: Inhibition of GABA-elicited currents of T6′A ELIC in Xenopus oocytes; format: cell-based, Erwinia chrysanthemii; settings: T6′A ELIC; inhibition curve
Method: as §1, §2, §3

[19] = molecular target: T14, wild type ELIC; experiment: Inhibition of GABA-elicited currents of wild-type ELIC in Xenopus oocytes; format: cell-based, Erwinia chrysanthemii
Method: as §1, §4, §5
Analysis and curve fitting were performed using Prism version 4.03 (GraphPad Software, San Diego, CA). Concentration–response data for each oocyte were normalized to the maximal current for that oocyte and the mean ± standard error of the mean (SEM) for a series of oocytes pooled and plotted against agonist or antagonist concentration and iteratively fit to the four-parameter logistic equation. Statistical analysis was performed using a Student’s t test.

[20] = molecular target: T15, F16′T ELIC; experiment: Inhibition of GABA-elicited currents of F16′T ELIC in Xenopus oocytes; format: cell-based, Erwinia chrysanthemii; settings: F16′T ELIC; inhibition curve
[21] = system: GLIC; parameters: method as in PMID 22677470, PMID 22208189; settings: cited from earlier work
[22] = molecular target: T8, T6′S ELIC; experiment: Inhibition of GABA-elicited currents of T6′S ELIC in Xenopus oocytes; format: cell-based, Erwinia chrysanthemii; settings: T6′S ELIC; inhibition curve
[23] = molecular target: T5, F16′S ELIC; experiment: Inhibition of GABA-elicited currents of F16′S ELIC in Xenopus oocytes; format: cell-based, Erwinia chrysanthemii; settings: F16′S ELIC
[24] = molecular target: T7, F16′E ELIC; experiment: Inhibition of GABA-elicited currents of F16′E ELIC in Xenopus oocytes; format: cell-based, Erwinia chrysanthemii; settings: F16′E ELIC; inhibition curve
[25] = molecular target: T10, F16′D ELIC; experiment: Inhibition of GABA-elicited currents of F16′D ELIC in Xenopus oocytes; format: cell-based, Erwinia chrysanthemii; settings: F16′D ELIC; inhibition curve
Method: as §1, §2, §3

[26] = molecular target: T9, F16′A ELIC; experiment: Inhibition of GABA-elicited currents of F16′A ELIC in Xenopus oocytes; format: cell-based, Erwinia chrysanthemii; settings: F16′A ELIC; inhibition curve
[27] = molecular target: T2, Q2′N ELIC; experiment: Inhibition of GABA-elicited currents of Q2′N ELIC in Xenopus oocytes; format: cell-based, Erwinia chrysanthemii; settings: Q2′N ELIC; inhibition curve
[28] = system: F16′A mutant ELIC; settings: F16′A mutant vs wild type; as previously shown; cited from earlier work
[29] = molecular target: T14, wild type ELIC; settings: previously identified; cited from earlier work

T14 sequence (P0C7B7 whole entry): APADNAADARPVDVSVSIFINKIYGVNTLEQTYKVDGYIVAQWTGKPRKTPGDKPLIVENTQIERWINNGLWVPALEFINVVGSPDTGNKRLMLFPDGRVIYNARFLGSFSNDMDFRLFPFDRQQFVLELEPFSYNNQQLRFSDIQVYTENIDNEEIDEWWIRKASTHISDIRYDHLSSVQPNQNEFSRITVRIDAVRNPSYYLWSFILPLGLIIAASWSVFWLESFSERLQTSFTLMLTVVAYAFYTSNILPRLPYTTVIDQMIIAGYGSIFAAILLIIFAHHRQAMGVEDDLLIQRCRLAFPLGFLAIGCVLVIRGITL
T7 sequence (P0C7B7 whole entry F246E): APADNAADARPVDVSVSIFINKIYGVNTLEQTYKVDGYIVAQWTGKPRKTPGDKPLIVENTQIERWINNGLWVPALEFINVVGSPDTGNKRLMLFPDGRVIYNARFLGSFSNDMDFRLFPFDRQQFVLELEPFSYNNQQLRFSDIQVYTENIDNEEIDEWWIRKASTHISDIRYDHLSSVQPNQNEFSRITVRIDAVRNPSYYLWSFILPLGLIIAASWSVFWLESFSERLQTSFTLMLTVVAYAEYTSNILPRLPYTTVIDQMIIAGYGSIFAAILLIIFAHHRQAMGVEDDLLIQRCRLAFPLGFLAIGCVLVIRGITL
T4 sequence (P0C7B7 whole entry F246W): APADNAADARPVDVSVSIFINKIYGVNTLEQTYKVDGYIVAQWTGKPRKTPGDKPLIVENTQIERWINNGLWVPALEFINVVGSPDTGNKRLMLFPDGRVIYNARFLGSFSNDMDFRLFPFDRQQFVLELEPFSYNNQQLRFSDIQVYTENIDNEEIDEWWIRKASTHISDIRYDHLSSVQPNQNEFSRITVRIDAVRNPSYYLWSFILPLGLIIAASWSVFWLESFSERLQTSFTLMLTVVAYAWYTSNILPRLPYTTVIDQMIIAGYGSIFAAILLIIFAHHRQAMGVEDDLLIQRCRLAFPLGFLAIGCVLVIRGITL
T5 sequence (P0C7B7 whole entry F246S): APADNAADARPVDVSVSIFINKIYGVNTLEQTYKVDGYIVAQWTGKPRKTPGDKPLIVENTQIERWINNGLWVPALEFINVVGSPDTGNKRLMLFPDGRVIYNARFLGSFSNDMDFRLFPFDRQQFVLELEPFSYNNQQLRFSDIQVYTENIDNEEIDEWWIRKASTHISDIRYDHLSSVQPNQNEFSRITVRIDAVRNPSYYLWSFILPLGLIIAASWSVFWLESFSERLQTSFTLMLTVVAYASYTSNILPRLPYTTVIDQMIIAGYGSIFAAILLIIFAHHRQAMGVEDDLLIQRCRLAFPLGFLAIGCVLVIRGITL
T9 sequence (P0C7B7 whole entry F246A): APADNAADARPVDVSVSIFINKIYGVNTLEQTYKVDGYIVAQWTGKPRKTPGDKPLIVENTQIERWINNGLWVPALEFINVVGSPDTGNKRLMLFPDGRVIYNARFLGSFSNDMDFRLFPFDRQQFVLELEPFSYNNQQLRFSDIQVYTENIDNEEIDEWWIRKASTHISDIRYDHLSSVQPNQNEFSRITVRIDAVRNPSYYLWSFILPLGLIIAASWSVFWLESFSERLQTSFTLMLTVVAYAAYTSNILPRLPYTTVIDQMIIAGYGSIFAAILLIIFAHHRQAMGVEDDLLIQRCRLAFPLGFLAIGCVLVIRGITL
T13 sequence (P0C7B7 whole entry T236A): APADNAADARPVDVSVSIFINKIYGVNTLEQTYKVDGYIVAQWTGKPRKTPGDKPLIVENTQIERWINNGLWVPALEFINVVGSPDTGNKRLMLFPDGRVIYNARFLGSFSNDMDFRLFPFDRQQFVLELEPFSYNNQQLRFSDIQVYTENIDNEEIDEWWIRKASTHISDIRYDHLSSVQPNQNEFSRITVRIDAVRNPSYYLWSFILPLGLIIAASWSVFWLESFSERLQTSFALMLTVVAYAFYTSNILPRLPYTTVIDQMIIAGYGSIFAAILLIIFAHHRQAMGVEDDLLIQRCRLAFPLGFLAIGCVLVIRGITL
T3 sequence (P0C7B7 whole entry F246L): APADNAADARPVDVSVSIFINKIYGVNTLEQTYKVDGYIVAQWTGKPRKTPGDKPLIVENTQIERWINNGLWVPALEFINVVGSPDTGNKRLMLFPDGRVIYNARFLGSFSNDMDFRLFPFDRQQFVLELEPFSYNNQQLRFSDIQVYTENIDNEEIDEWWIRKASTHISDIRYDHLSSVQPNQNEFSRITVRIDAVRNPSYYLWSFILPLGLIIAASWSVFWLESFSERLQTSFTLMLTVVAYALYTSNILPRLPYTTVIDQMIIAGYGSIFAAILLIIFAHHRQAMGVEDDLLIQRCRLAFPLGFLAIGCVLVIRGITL
T15 sequence (P0C7B7 whole entry F246T): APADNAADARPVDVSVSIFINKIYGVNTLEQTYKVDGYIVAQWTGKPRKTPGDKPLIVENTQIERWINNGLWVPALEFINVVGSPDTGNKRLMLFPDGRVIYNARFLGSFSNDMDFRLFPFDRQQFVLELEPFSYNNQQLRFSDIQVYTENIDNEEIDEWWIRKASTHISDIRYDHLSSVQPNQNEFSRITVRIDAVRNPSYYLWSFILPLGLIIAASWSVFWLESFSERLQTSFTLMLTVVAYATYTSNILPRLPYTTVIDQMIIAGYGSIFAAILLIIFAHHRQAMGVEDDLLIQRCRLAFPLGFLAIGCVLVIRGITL
T2 sequence (P0C7B7 whole entry Q232N): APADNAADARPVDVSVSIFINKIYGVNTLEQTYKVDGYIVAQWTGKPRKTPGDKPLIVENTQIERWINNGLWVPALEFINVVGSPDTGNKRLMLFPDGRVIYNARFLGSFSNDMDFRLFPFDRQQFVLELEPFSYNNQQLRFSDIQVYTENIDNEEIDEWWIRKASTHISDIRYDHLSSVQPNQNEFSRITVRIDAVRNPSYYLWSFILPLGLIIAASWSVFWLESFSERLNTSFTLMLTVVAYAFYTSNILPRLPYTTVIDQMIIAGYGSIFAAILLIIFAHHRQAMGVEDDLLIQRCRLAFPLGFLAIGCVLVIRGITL
T10 sequence (P0C7B7 whole entry F246D): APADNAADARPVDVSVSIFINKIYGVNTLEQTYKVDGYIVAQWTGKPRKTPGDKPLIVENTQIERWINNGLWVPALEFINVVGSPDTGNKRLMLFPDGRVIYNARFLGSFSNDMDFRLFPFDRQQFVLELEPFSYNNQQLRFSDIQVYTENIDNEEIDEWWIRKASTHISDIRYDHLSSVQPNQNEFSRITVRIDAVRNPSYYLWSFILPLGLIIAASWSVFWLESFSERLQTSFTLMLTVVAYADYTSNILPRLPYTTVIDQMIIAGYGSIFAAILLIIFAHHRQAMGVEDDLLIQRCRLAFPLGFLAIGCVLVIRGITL
T8 sequence (P0C7B7 whole entry T236S): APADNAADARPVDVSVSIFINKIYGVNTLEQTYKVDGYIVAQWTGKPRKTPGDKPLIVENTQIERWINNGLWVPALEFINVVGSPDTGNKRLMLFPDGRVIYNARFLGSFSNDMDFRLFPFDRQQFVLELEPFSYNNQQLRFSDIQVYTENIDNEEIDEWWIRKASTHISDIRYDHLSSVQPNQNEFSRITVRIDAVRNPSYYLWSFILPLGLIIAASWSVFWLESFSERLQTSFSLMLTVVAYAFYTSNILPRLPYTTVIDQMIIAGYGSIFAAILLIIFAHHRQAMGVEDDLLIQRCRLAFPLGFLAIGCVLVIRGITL
T6 sequence (P0C7B7 whole entry F246Q): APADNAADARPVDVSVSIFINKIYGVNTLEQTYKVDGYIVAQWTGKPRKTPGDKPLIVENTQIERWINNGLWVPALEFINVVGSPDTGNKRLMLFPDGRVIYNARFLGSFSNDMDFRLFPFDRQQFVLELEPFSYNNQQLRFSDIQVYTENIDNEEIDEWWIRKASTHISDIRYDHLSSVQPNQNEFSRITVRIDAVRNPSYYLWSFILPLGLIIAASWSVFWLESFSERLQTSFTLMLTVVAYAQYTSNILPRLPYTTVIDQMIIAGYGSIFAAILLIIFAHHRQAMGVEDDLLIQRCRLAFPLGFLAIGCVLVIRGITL
T1 sequence (P0C7B7 whole entry F246Y): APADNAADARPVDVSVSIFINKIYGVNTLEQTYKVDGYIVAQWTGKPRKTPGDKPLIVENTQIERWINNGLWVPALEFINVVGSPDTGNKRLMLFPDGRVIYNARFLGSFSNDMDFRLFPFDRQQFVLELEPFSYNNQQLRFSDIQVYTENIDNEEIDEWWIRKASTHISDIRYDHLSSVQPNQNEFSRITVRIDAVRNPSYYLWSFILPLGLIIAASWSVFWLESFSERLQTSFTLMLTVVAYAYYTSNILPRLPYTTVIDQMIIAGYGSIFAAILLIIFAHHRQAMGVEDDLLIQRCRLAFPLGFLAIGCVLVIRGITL
T12 sequence (P0C7B7 whole entry T236S/F246S): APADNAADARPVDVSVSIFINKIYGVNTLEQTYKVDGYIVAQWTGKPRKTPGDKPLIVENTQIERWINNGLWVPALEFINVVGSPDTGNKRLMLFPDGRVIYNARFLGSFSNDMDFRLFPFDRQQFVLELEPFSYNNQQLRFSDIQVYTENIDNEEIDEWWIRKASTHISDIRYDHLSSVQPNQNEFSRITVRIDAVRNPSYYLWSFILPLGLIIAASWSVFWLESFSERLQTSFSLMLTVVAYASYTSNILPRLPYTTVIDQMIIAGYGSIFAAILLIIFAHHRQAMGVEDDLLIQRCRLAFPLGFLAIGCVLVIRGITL
T11 sequence (P0C7B7 whole entry Q232A): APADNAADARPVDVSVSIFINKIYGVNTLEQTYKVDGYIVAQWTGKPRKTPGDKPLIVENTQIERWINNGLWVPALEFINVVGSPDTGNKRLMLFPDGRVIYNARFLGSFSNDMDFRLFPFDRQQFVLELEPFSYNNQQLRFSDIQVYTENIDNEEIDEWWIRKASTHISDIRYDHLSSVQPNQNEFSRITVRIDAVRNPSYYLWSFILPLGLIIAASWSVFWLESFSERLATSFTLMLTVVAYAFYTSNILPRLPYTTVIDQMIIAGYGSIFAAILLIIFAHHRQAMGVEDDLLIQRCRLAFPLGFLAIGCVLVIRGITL

For `NCCCC(=O)O` [GABA, γ-aminobutyric acid], the nH [1] was 2.1 ± 0.3, the nH [2] was 2.6 ± 1.3 and the “fold change in EC50 compared to wild type” value ([3]; F16′L ELIC vs wild type) was 32 fold. It also gave a nH ([3]; F16′L ELIC, GABA concentration–response) of 1.6 ± 0.2, a nH [4] of 3.6 ± 0.5 and a nH [5] of 2.5 ± 0.6. For the same compound, the nH [6] was 2.3 ± 0.6, the “fold increase in EC50 compared to wild type” value ([7]; F16′E ELIC vs wild type) was 16 fold and the nH ([7]; F16′E ELIC, GABA concentration–response) was 1.3 ± 0.2. For the same compound, the nH [8] was 2.7 ± 0.3, the nH [9] was 3.0 ± 0.5 and the nH [10] was 2.5 ± 0.3. For the same compound, the “response to application of 100 mM GABA” value [11] was “did not respond”, the nH [12] was 2.2 ± 0.7 and the nH [13] was 2.1 ± 0.1. The “nH (Hill slope)” value ([14]; GABA concentration–response) was 2.5 ± 0.7, the EC50 ([14]; oocytes clamped at −60 mV, mean ± SEM, read-out: GABA pEC50 (converted)) was 1660 µM and the EC50 ([14]; read-out: GABA EC50) was 1600 µM. It also gave a nH [15] of 1.8 ± 0.3.

For `O=S1OC[C@@H]2[C@H](CO1)[C@@]1(Cl)C(Cl)=C(Cl)[C@]2(Cl)C1(Cl)Cl` (stereo partly drawn) [α-endosufan], the “inhibition of ELIC” value [16] is given as “abolish inhibition”.

With `C=C(C)[C@@H]1[C@H]2OC(=O)[C@@H]1[C@]1(O)C[C@H]3O[C@]34C(=O)O[C@H]2[C@]14C` [PXN, Picrotoxinin] the inhibition at 100 µM ([17]; co-application of 100 μM PXN with GABA EC50, read-out: inhibition of the GABA EC50 response) was ~50%, the nH ([17]; inhibition curve) was 1.3 ± 0.3 and the nH [18] was 1.8 ± 0.4. For the same compound, the IC50 [19] was 72 µM, the inhibition at 100 µM ([19]; read-out: inhibition of the GABA EC50 response) was ~50% and the nH ([19]; wild type ELIC, inhibition curve) was 1.3 ± 0.3. The nH [20] was 0.9 ± 0.1, the IC50 [21] was 2.6 µM and the nH [22] was 1.3 ± 0.3. The “inhibition of the GABA EC50 response” value ([23]; co-application of 100 μM PXN with GABA EC50) was “completely abolishes”, the nH ([23]; inhibition curve) was 1.3 ± 0.3 and the nH [24] was 0.6 ± 0.1. It also gave a nH [25] of 1.0 ± 0.2, a nH [26] of 1.0 ± 0.2 and a nH [27] of 1.6 ± 0.3.

In the case of `NCCS` [cysteamine], the “fold change in cysteamine EC50” value [28] is listed as < 10 fold.

In the case of `CCCC(C(=O)OCCN(CC)CC)(c1ccccc1)c1ccccc1` [proadifen], the IC50 ([19]; wild type ELIC, inhibition measured at the GABA EC50, read-out: IC50) is given as 8.1 µM and the IC50 [29] is given as 8 µM.
